What is called IC50 is the concentration that inhibits the measured activity by half. High values mean lower potency, low ones higher potency.

Molecules are shown by their SMILES.

For the assay, the system named is HIV virus (HIV-infected normal human blood lymphocytes (PBLs) or alternatively H9 cells). Description: HIV infection in cell culture (inhibition of virus-induced syncytia). The assay is classed as cell-based. The conditions noted are these: Human immunodeficiency virus 1, 72 h, concentration at which 50% of the virus-induced syncytia are suppressed, day 3 to 6 after infection, 37° C. The protocol: HIV infection in cell culture
The HIV test was carried out with slight modifications according to the method of Pauwels et al. [cf. Journal of Virological Methods 20, (1988), 309-321].
Normal human blood lymphocytes (PBLs) were concentrated by means of Ficoll-Hypaque and stimulated with phytohaemagglutinin (90 μg/ml) and interleukin-2 (40 U/ml) in RPMI 1640 and 20% foetal calf serum. For infection with the infectious HIV, PBLs were pelleted and the cell pellet was then suspended in 1 ml of HIV virus adsorption solution and incubated for 1 hour at 37° C.
Alternatively, HIV-susceptible H9 cells were employed instead of normal human blood lymphocytes for testing the antiviral effects of the compounds according to the invention.
The virus adsorption solution was centrifuged and the infected cell pellet was taken up in growth medium so that a concentration of 1×10^5 cells per ml was established. The cells infected in this way were pipetted into the wells of 96-well microtiter plates to give 1×10^4 cells/well.
The first vertical row of the microtiter plate contained only growth medium and cells which had not been infected, but otherwise treated exactly as described above (cell control). The second vertical row of the microtiter plate contained only HIV-infected cells (virus control) in growth medium. The other wells contained the compounds according to the invention in differing concentrations, starting from the wells of the 3rd vertical row of the microtiter plate, from which the test substances were diluted 2^10 times in 2-fold steps.
The test batches were incubated at 37° C. until, in the untreated virus control, the syncytia formation typical of HIV occurred (between day 3 and 6 after infection), which was then microscopically assessed. Under these test conditions, in the untreated virus control about 20-50 syncytia resulted, while the untreated cell control contained no syncytia.
The IC50 values were determined as the concentration of the treated and infected cells at which 50% (about 10-20 syncytia) of the virus-induced syncytia were suppressed by treatment with the compound according to the invention.
For `CON=c1c2cc(Cl)ccc2[nH]c(=O)c2ccccc12` [Example 6], it took 1500 nM to reach half-maximal inhibition (IC50).

Molecule `CCO/N=c1/c2cc(Cl)ccc2[nH]c(=O)c2ccccc12` [Example 4, (E) -2-Chloro-11-ethoxyimino-6-oxo-5,6-dihydro-11-H-dibenz [b,e]azepine] returned a half-inhibitory concentration (IC50) of 60 nM.

The molecule `Cc1ccnc2c1NC(=O)c1cccnc1N2C1CC1` [BIRG 587, reference compound] returned an IC50 of 90 nM.

In turn, `COC(=O)CON=c1c2cc(Cl)ccc2[nH]c(=O)c2ccccc12` [Example 24] registered an IC50 of 2300 nM.

`O=c1[nH]c2ccc(Cl)cc2c(=NOCc2ccccc2)c2ccccc12` [Example 17]: inhibition was half-maximal at 700 nM (IC50).

The molecule `O=c1[nH]c2ccc(Cl)cc2c(=NOCc2c(F)c(F)c(F)c(F)c2F)c2ccccc12` [Example 18] came in with a 50% inhibitory concentration (IC50) of 1000 nM.

`O=c1[nH]c2ccc(Cl)cc2c(=NOC2CCCCO2)c2ccccc12` (centres unmarked) [Example 31]: the half-maximal inhibitory concentration (IC50) is 250 nM.

`CCO/N=c1\c2cc(Cl)ccc2[nH]c(=O)c2ccccc12` [Example 8]: half-maximal inhibition (IC50) was put at 500 nM.

The values above are taken from US5416209A, “5,6-dihydro-dibenz[b,e]azepine-6,11-dione-11-oximes” (Bayer Aktiengesellschaft, priority 1991, dated 1995).
